Measured values: US6911432B2, “Drugs, foods or drinks with the use of algae-derived physiologically active substances” (priority 1997, dated 2005)

Tests used:
HL-60 cells [1] = experiment: antiproliferation assay, MTT method, absorbance at 590 nm; type: cell-based, human; conditions: HL-60
A549 = experiment: antiproliferation assay, MTT method; type: cell-based, human
Protocol: (§1) Each fraction was sterilized by filtration and its 10 μl portion was placed in a well of a 96 well microtiter plate. […] The cell morphology was observed under an optical microscope. […] The absorbance at 590 nm was measured to determine a cell proliferation rate. (2) A 50 mM solution of agarobiose, agarotetraose or agarohexaose obtained in Example 3-(1) was sterilized by filtration and diluted 2-, 4-, 8-, 16-, 32-, 64- and 128-folds with sterilized water. […] [table] The number in Table 3 represents the dilution rate of the dilution added to the group whose absorbance at 590 nm was less than one-half of that of the control group to which water was added. […] Then, for agarobiose, agarotetraose and agarohexaose, the concentrations required for 50% proliferation inhibitory rate (IC50) are calculated based on the change in the absorbance at 590 nm, and are shown in Table 4.

HCT116 = experiment: antiproliferation assay, MTT method; type: cell-based, human
Protocol: as §1

HT-29 = experiment: antiproliferation assay, MTT method; type: cell-based, human
Protocol: as §1

HeLa S3 = experiment: antiproliferation assay, MTT method; type: cell-based, human
Protocol: as §1

HepG2 = experiment: antiproliferation assay, MTT method; type: cell-based, human
Protocol: as §1

MCF7 = experiment: antiproliferation assay, MTT method; type: cell-based, human
Protocol: as §1

MKN45 = experiment: antiproliferation assay, MTT method; type: cell-based, human
Protocol: as §1

RPMI1788 = experiment: antiproliferation assay, MTT method; type: cell-based, human
Protocol: as §1

T-47D = experiment: antiproliferation assay, MTT method; type: cell-based, human
Protocol: as §1

T24 = experiment: antiproliferation assay, MTT method; type: cell-based, human
Protocol: as §1

WiDr = experiment: antiproliferation assay, MTT method; type: cell-based, human
Protocol: as §1

A-172 = experiment: antiproliferation assay, MTT method; type: cell-based
Protocol: as §1

HT-1080 = experiment: antiproliferation assay, MTT method; type: cell-based
Protocol: as §1

HL-60 cells [2] = experiment: viable cell count with Trypan Blue under a microscope; type: cell-based, human; conditions: final concentration 250 μM or 125 μM
Protocol: Agarobiose, agarotetraose, agarohexaose and agarooctaose (hereinafter, sometimes, these oligosuccharaides are referred to as agarooligosaccharides) obtained in Example 5 were dissolved in water at a concentration of 2.5 mM or 1.25 mM separately, and were sterilized by filtration. HL-60 cells were suspended in RPMI 1640 medium containing 10% fetal bovine serum at a concentration of 2.5×10^5 cells/4.5 ml and to this suspension was added 0.5 ml of each of the oligosaccharide solutions. The resultant mixture were incubated with 5% CO2 at 37° C. for 24 hours or 48 hours. A part of the cell culture was taken up, followed by addition of Trypan Blue thereto and observing under a microscope to count the number of viable cells.
That is, FIG. 14 illustrates the relation between the incubation time and the number of viable cells when HL-60 cells were cultured with addition of one of the oligosaccharides at the final concentration of 250 μM. FIG. 15 illustrates the relation between the incubation time and the number of viable cells when HL-60 cells were cultured with addition of one of the oligosaccharides at the final concentration of 125 μM. In FIGS. 14 and 15, the horizontal axes represent the incubation time (hrs.) and the vertical axes represent the number of viable cells (× 10^5/5 ml). The closed circle (●) represents the addition of water (control), the open diamond (⋄) represents the addition of agarobiose, the open circle (◯) represents the addition of agarotetraose, the open triangle (Δ) represents the addition of agarohexaose and the open square (□) represents the addition of agarooctaose.

iNOS = iNOS expression by western blotting and RT-PCR; type: cell-based; conditions: protein level by western blotting, messenger RNA level by RT-PCR
Protocol: The confirmation was carried out at protein level by western blotting and at messenger RNA level by RT-PCR. That is, the compounds used in the present invention are useful for treating and preventing diseases that require inhibition of NO production by inhibiting expression of iNOS which is overexpressed by various factors to produce excess NO.

[3] = reaction with L-cysteine or L-lysine in phosphate buffered saline at 37° C., thin layer chromatography; type: physicochemical
Protocol: (2) Agarobiose and agarohexaose obtained in Example 14-(1) were dissolved in water to prepare 100 mM aqueous solutions thereof. To each 25 μl of these solutions was added 50 μl of 100 mM aqueous L-cysteine solution, followed by addition of 925 μl of phosphate buffered saline. Then, the mixture was treated at 37° C. for 1 hour or 16 hours. The same reaction was repeated except that an aqueous solution containing the same concentration of L-lysine was used instead of the aqueous L-cysteine solution.
1 μl of a sample from each reaction was spotted on a silica gel sheet 60 F254, developed with 1-butanol:ethanol:water=5:5:1 and detected by orcinol-sulfate method.

[4] = read-out: IC50 (concentration required for 50% proliferation inhibitory rate)
[5] = dilution rate 1 corresponds to 5 mM in medium

## OC[C@H]1O[C@@H](O[C@H]2[C@H]3OC[C@@H]2O[C@@H](O[C@H]2[C@@H](O)[C@@H](CO)O[C@@H](O[C@H]4[C@H]5OC[C@@H]4OC(O)[C@H]5O)[C@@H]2O)[C@H]3O)[C@H](O)[C@@H](O)[C@H]1O (stereo partly shown) [Agarotetraose, agarotetraose]
HL-60 cells [1]; 50 mM solution diluted 2- to 128-fold, dilution rate 1 corresponds to 5 mM in the cell culture medium
  dilution rate of the dilution added to the group whose absorbance at 590 nm was less than one-half of that of the control group: 64
HL-60 cells [1]; after reaction with L-cysteine at 37° C. for 1 hour
  antiproliferation activity relative to the same concentration of the unreacted saccharide: 1/10
HL-60 cells [1]; after reaction with L-cysteine at 37° C. for 16 hours
  antiproliferation activity relative to the same concentration of the unreacted saccharide: 1/10
HL-60 cells [1]; after reaction with L-lysine at 37° C. for 16 hours
  antiproliferation activity relative to the same concentration of the unreacted saccharide: 1/10
HL-60 cells [1]; [4]
  IC50: 97 µM
A549; [5]
  dilution rate of the dilution added to the group whose absorbance at 590 nm was less than one-half of that of the control group: 8
A549; [4]
  IC50: 494 µM
HCT116; [5]
  dilution rate of the dilution added to the group whose absorbance at 590 nm was less than one-half of that of the control group: 32
HCT116; [4]
  IC50: 158 µM
HT-29; [5]
  dilution rate of the dilution added to the group whose absorbance at 590 nm was less than one-half of that of the control group: 16
HT-29; [4]
  IC50: 208 µM
HeLa S3; [5]
  dilution rate of the dilution added to the group whose absorbance at 590 nm was less than one-half of that of the control group: 8
HeLa S3; [4]
  IC50: 400 µM
HepG2; [5]
  dilution rate of the dilution added to the group whose absorbance at 590 nm was less than one-half of that of the control group: 8
HepG2; [4]
  IC50: 413 µM
MCF7; [5]
  dilution rate of the dilution added to the group whose absorbance at 590 nm was less than one-half of that of the control group: 16
MCF7; [4]
  IC50: 276 µM
MKN45; [5]
  dilution rate of the dilution added to the group whose absorbance at 590 nm was less than one-half of that of the control group: 16
MKN45; [4]
  IC50: 196 µM
RPMI1788; [5]
  dilution rate of the dilution added to the group whose absorbance at 590 nm was less than one-half of that of the control group: 128
RPMI1788; [4]
  IC50: 28 µM
T-47D; [5]
  dilution rate of the dilution added to the group whose absorbance at 590 nm was less than one-half of that of the control group: 16
T-47D; [4]
  IC50: 183 µM
T24; [5]
  dilution rate of the dilution added to the group whose absorbance at 590 nm was less than one-half of that of the control group: 8
T24; [4]
  IC50: 399 µM
WiDr; [5]
  dilution rate of the dilution added to the group whose absorbance at 590 nm was less than one-half of that of the control group: 8
WiDr; [4]
  IC50: 399 µM
A-172; [5]
  dilution rate of the dilution added to the group whose absorbance at 590 nm was less than one-half of that of the control group: 16
A-172; [4]
  IC50: 185 µM
HT-1080; [5]
  dilution rate of the dilution added to the group whose absorbance at 590 nm was less than one-half of that of the control group: 16
HT-1080; [4]
  IC50: 216 µM
HL-60 cells [2]
  apoptosis corpuscles: apoptosis corpuscles were observed
HL-60 cells [2]; 24 hours or 48 hours
  number of viable cells as compared with the group to which water was added: decreased
iNOS
  inhibition of iNOS expression: inhibit this iNOS expression
[3]; L-cysteine, 1 hour
  spot of the saccharide on thin layer chromatography after reaction: disappeared
[3]; L-cysteine, 16 hours
  spot of the saccharide on thin layer chromatography after reaction: disappeared
[3]; L-lysine, 16 hours
  spot of the saccharide on thin layer chromatography after reaction: disappeared
